Assay results from patent US9526680B2, “Method for searching for malodor control agent, malodor control agent, and malodor control method” (Kao Corporation, priority 2010, dated 2016).

Assays:
OR2W1 = target: T1, OR2W1 (Homo sapiens, UniProt Q9Y3N9); assay: Luciferase reporter gene assay, OR2W1 expressed in HEK293 cells; assay type: cell-based; conditions: response to hexanoic acid; test substance added together with hexanoic acid; HEK293
T1 construct: expressed in transfected cells; host or cells: HEK293
T1 sequence (Q9Y3N9 1-320): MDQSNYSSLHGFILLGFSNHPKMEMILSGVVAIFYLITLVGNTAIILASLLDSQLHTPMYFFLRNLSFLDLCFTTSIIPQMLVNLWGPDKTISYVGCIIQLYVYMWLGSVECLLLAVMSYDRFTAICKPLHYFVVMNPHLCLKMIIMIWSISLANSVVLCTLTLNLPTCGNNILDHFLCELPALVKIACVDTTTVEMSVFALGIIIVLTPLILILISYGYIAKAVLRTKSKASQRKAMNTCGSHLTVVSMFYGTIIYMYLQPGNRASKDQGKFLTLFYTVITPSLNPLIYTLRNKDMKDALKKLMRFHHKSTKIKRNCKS
Procedure: (§1) Cloning of human olfactory receptors was performed based on the sequence information registered in GenBank, through PCR with human genomic DNA female (G1521: Promega) as a template. Each of the genes amplified through PCR was inserted into a pENTR vector (Invitrogen) according to an instruction manual. Then, the gene-inserted vector was digested with NotI and AscI, and the obtained fragments were inserted into NotI and AscI sites located downstream of the Flag-Rho tag sequence in the pME18S vector.
(§2) Each of the 350 types of human olfactory receptors was expressed in HEK293 cells. A reaction solution having a composition shown in Table 2 was prepared on a clean bench, and left to stand for 15 minutes. The solution was dispensed to each well of a 96-well plate (BD). Subsequently, […] cells (100 μL, 3×10^5 cells/cm^2) were seeded in each well and cultured for 24 hours in an incubator at 37° C. and under 5% CO2 conditions.
(§3) The olfactory receptor expressed in HEK293 cell was conjugated with cell-intrinsic Gas to activate adenylate cyclase, and thereby the level of intracellular cAMP was increased. For the measurement of the response to odor in this study, the luciferase reporter gene assay was used, in which an increase in the amount of intracellular cAMP was monitored by using the emission value originating from firefly luciferase gene (fluc2P-CRE-hygro) as an indicator. Furthermore, a gene product obtained by fusing renilla luciferase gene in the downstream of CMV promoter (hRluc-CMV) was simultaneously introduced, and this was used as an internal standard for correcting an error in the transgenesis efficiency or the number of cells. The medium was removed from the culture prepared in the above-described section 3) by using a Pipetman, and 75 μl of a solution containing an odor substance (1 mM hexanoic acid or 300 μM nonanoic acid) prepared in CD293 medium (Invitrogen) was added thereto. The cells were cultured for 4 hours in a CO2 incubator, and the luciferase gene was sufficiently expressed in the cells. For the measurement of luciferase activity, the measurement was carried out by using a Dual-Glo™ luciferase assay system (Promega) according to the operation manual of the product. A value calculated by dividing the emission value, derived from a firefly luciferase induced by the stimulation with an odor substance, by the emission value in cells that were not-stimulated with an odor substance, was designated as a fold increase, and used as an index of response intensity.
(§4) OR2W1, OR10A6, OR51E1, OR51I2, and OR51L1 were respectively expressed in HEK293 cells by the same method as that used in Example 1, and a luciferase assay was carried out. In the luciferase assay, hexanoic acid was used as the odorous substance, and test substances were added together with hexanoic acid. The response of the olfactory receptors to hexanoic acid was measured, and a decrease in the receptor response to the addition of test substances was evaluated.
(§5) The inhibition ratios of the receptor response to test substances were calculated as follows. The emission value (Y) obtained from the cells in which the same receptors were introduced but no odor stimulation was conducted, was subtracted from the emission value derived from firefly luciferase (X) induced by odor stimulation with hexanoic acid alone. Similarly, the emission value (Y) obtained from the cells in which no odor stimulation was conducted, was subtracted from the emission value (Z) caused by stimulation with a mixture of hexanoic acid and a test substance. By the following calculation formula, the inhibitory activity of the test substance to receptor response was calculated based on the increment of the emission value (X−Y) caused by stimulation of hexanoic acid alone. Multiple independent experiments were performed in duplicate, and the average of each experiment was obtained. Inhibition ratio (%)={1−(Z−Y)/(X−Y)}×100 […]

[1] = Sensory evaluation test of hexanoic acid odor inhibition; assay type: in vivo; conditions: for Intensity of odor: hexanoic acid odor, malodor alone rated as 5, 0 to 10 points, test substance diluted 100 times with propylene glycol, three panelists; for Inhibition of hexanoic acid odor (in words): sensory test, test substance diluted 100 times with propylene glycol (FIG. 5, Table 4)
Procedure: Cotton balls were introduced into a glass bottle (Hakuyo Glass Co., Ltd. No. 11, capacity 110 ml), and hexanoic acid diluted 100 times with propylene glycol, nonanoic acid diluted 10 times with propylene glycol, or isovaleric acid diluted 1000 times with propylene glycol, as a malodor, and a test substance were added dropwise in an amount of […] to the cotton balls. The glass bottle was left to stand overnight at room temperature, and the odor molecules were sufficiently volatilized in the glass bottle. A sensory evaluation test was carried out by a panel of three panelists (5 panelists for isovaleric acid), and while the intensity of odor in the case of adding dropwise the malodor alone was rated as 5, the intensity of the malodor in the case of incorporating a test substance was evaluated on the basis of a system of 20 grades from 0 point to 10 points (0.5 points per grade).
Regarding the test substance, florhydral (Givaudan SA), bourgeonal (Givaudan SA), hydroxycitronellal (Givaudan SA, International Flavors & Fragrances, Inc., and the like), 4-isopropylcyclohexanecarbaldehyde (synthesized according to a method described in JP-A-2-188549), 4-(2-methoxyphenyl)-2-methyl-2-butanol (JP-A-9-111281), florosa (Givaudan SA), isocyclocitral (Givaudan SA, International Flavors & Fragrances, Inc., and the like), tripral (International Flavors & Fragrances, Inc.), and Pollenal II (Kao Corp.), which had been diluted 100 times with propylene glycol, were used for hexanoic acid; florhydral that had been diluted 10 times with propylene glycol was used for nonanoic acid; and florhydral that had been diluted 1000 times with propylene glycol was used for isovaleric acid.

OR51I2 = target: T2, OR51I2 (Homo sapiens, UniProt Q9H344); assay: Luciferase reporter gene assay, OR51I2 expressed in HEK293 cells; assay type: cell-based; conditions: for Inhibition ratio of OR51I2 response: response to hexanoic acid, test substance added together with hexanoic acid, HEK293
T2 construct: expressed in transfected cells; host or cells: HEK293
T2 sequence (Q9H344 1-312): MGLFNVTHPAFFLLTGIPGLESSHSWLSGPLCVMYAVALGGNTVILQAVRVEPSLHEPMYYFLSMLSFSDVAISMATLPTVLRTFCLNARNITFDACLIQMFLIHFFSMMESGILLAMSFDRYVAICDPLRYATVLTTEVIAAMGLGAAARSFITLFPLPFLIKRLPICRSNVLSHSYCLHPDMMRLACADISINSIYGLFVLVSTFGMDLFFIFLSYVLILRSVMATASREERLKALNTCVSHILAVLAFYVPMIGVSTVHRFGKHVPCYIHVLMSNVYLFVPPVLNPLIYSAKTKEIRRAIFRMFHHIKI
Procedure: as §1, §2, §3, §4, §5

OR51E1 = target: T3, OR51E1 (Homo sapiens, UniProt Q8TCB6); assay: Luciferase reporter gene assay, OR51E1 expressed in HEK293 cells; assay type: cell-based; conditions: for Inhibition ratio of OR51E1 response: response to hexanoic acid, test substance added together with hexanoic acid, HEK293
T3 construct: expressed in transfected cells; host or cells: HEK293
T3 sequence (Q8TCB6 1-318): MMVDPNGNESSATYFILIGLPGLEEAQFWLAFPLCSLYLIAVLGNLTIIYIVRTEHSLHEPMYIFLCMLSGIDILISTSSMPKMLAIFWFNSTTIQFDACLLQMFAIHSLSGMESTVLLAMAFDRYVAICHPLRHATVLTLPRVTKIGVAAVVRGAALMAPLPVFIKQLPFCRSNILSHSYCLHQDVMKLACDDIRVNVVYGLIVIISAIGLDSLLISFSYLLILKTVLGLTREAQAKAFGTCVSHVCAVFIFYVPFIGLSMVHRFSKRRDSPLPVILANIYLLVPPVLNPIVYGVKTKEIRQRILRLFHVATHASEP
Procedure: as §1, §2, §3, §4, §5

OR51L1 = target: T4, OR51L1 (Homo sapiens, UniProt Q8NGJ5); assay: Luciferase reporter gene assay, OR51L1 expressed in HEK293 cells; assay type: cell-based; conditions: response to hexanoic acid; test substance added together with hexanoic acid; HEK293
T4 construct: expressed in transfected cells; host or cells: HEK293
T4 sequence (Q8NGJ5 1-315): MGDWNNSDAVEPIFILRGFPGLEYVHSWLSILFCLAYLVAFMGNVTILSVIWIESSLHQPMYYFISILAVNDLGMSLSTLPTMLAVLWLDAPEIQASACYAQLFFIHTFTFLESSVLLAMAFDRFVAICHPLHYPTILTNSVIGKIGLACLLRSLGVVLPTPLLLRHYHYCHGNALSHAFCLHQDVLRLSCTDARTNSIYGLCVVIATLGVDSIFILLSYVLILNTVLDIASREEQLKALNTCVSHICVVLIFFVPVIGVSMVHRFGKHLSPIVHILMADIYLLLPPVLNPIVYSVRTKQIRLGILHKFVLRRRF
Procedure: as §1, §2, §3, §4, §5

[2] = fold increase of luciferase emission, 1 mM hexanoic acid or 300 μM nonanoic acid, or concentration series up to 1000 μM

Row | SMILES | Intensity of odor [1] | Inhibition of hexanoic acid odor (in words) [1] | Inhibition ratio of OR51I2 response (OR51I2) | further results
1 | COc1ccccc1CCC(C)(C)O [4-(2-Methoxyphenyl)-2-methyl-2-butanol, 4-(2-methoxyphenyl)-2-methyl-2-butanol] | 3.88 | inhibit the hexanoic acid odor |  | Inhibition ratio of OR2W1 response (OR2W1): 1 (Inhibition ratio: 50% or higher)
2 | CC(C)C1CCC(C)(CO)CC1 (stereo not shown) [4-Isopropyl-1-methylcyclohexylmethanol, 4-isopropyl-1-methylcyclohexylmethanol] |  |  | 2 (Inhibition ratio: 20% to 50%) | 
3 | CC(C)C1CCC(C=O)CC1 (stereo not shown) [4-Isopropylcyclohexanecarbaldehyde, 4-isopropylcyclohexanecarbaldehyde] | 2.17 | inhibit the hexanoic acid odor | 2 (Inhibition ratio: 20% to 50%) | 
4 | CC(C)=CCCC(C)CC=O (stereo not shown) [Citronellal, 3,7-dimethyl-6-octenal] |  |  |  | Inhibition ratio of OR51E1 response (OR51E1): 2 (Inhibition ratio: 20% to 50%)
5 | CC(C)c1ccc(C=O)cc1 [Cuminaldehyde, 4-isopropylbenzaldehyde] |  |  | 2 (Inhibition ratio: 20% to 50%) | 
6 | CC(C=O)Cc1ccc(C(C)C)cc1 (stereo not shown) [Cyclamen aldehyde, 3-(4-isopropylphenyl)-2-methylpropanal] |  |  | 2 (Inhibition ratio: 20% to 50%) | 
7 | CC1(C)CCCC2=C1CC(C=O)CC2 (stereo not shown) [Cyclemon A, 1,2,3,4,5,6,7,8-octahydro-8,8-dimethyl-2-naphthalenecarboxyaldehyde] |  |  |  | Inhibition ratio of OR2W1 response (OR2W1): 1 (Inhibition ratio: 50% or higher)
8 | CC(CC=O)CCCC(C)(C)O (stereo not shown) [Hydroxycitronellal, 3,7-dimethyl-7-hydroxyoctanal] | 2.25 | inhibit the hexanoic acid odor | 2 (Inhibition ratio: 20% to 50%) | Inhibition ratio of OR51E1 response (OR51E1): 2 (Inhibition ratio: 20% to 50%); Inhibition ratio of OR51L1 response (OR51L1): 2 (Inhibition ratio: 20% to 50%)
9 | CC(C=O)Cc1ccc(C(C)(C)C)cc1 (stereo not drawn) [Lilial, p-tert-butyl-α-methylhydrocinnamaldehyde] |  |  | 2 (Inhibition ratio: 20% to 50%) | Inhibition ratio of OR2W1 response (OR2W1): 2 (Inhibition ratio: 20% to 50%)
10 | Cc1cccc(CC(C)(C)CO)c1 [Majantol, 2,2-dimethyl-3-(3-methylphenyl)propanol] |  |  |  | Inhibition ratio of OR2W1 response (OR2W1): 2 (Inhibition ratio: 20% to 50%)
11 | COC(C)(C)CCCC(C)CC=O (stereo not shown) [Methoxycitronellal, 7-methoxy-3,7-dimethyloctanal] |  |  | 1 (Inhibition ratio: 50% or higher) | Inhibition ratio of OR51E1 response (OR51E1): 1 (Inhibition ratio: 50% or higher); Inhibition ratio of OR51L1 response (OR51L1): 1 (Inhibition ratio: 50% or higher)
12 | CC(C=O)C1CCCCC1 (stereo not shown) [Pollenal II, 2-cyclohexylpropanal] | 2.08 | inhibit the hexanoic acid odor |  | Inhibition ratio of OR51E1 response (OR51E1): 2 (Inhibition ratio: 20% to 50%)
13 | CC(C)Cc1ccc(CC(C)C=O)cc1 (stereo not shown) [Suzaral, 3-(4-isobutylphenyl)-2-methyl-propionaldehyde] |  |  | 2 (Inhibition ratio: 20% to 50%) | 
14 | CC1=CC(C)C(C=O)CC1 (stereo not shown) [Tripral, 2,4-dimethyl-3-cyclohexane-1-carboxyaldehyde] | 2.00 | inhibit the hexanoic acid odor |  | Inhibition ratio of OR51L1 response (OR51L1): 2 (Inhibition ratio: 20% to 50%)
15 | CC(C)CC(=O)O [isovaleric acid, reference compound] |  |  |  | Response of OR51E1 to the odor substance (OR51E1; [2]): concentration-dependent response; Response of OR51I2 to the odor substance (OR51I2; [2]): concentration-dependent response
